The results in this text go back to the supplement of paper PMC11208160.
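Note: IS621 bridge recombinase in Escherichia coli cells against a fixed T5 target plasmid.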

This series in a line: recombinant UMI read abundance after kanamycin selection (control-corrected) (log10(CPM+1)); higher = more efficient recombination; extreme values may be limits of the assay; sequences stand for … in AGTGCAGAGAAAATCGGCCAGTTTTCTCTGCCTGCAGTCCGCATGCCGTGGGACCCCTTGGGTTCTAACCTGTTGCCTAGATTTATGCAGCGGACTGCCTTTCTCCCAAAGTGATAAACCGG…AGGTTGGTTTCACT; site = the 11-nt donor. The procedure:
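Pooled E. coli donor-specificity screen for the IS621 bridge recombinase. Each library member carries a reprogrammed 11-nt donor and a full-length LE bridge RNA expressed in cis from the natural promoter, with a paired donor-binding loop (8-nt LDG + 4-nt RDG) and a target-binding loop fixed to T5. It is co-electroporated with a T5 target plasmid; recombinase is induced with 0.07 mM IPTG and recombinants are selected on kanamycin. UMIs are counted as CPM, averaged over two biological replicates and corrected by the unselected control. Molecule = full bridge RNA written as DNA, built from the T5 scaffold: LDG = donor specificity nt 1-8, RDG = reverse complement of nt 8-11.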
For the sequence “ACAGCATCATGGACCGGTTTTCCCGGTAATCCGTATTTGCG (site ACAGCATCTCG)”, the “recombinant UMI read abundance (log10)” value was 2.33. As for “ACAGCATCATGGACCGGTTTTCCCGGTAATCCGTATTTGCG (site ACAGTATCTTG)”, the figure is 0. The value for “ACAGCTTCATGGACCGGTTTTCCCGGTAATCCGTATTTGCA (site ACAGCTTCTTG)” was 2.59; that for “ACAGCTTCATGGACCGGTTTTCCCGGTAATCCGTATTTGCA (site ACAGTATCTTG)” was 2.16. On to “ACAGTACCATGGACCGGTTTTCCCGGTAATCCGTATTTGAA (site ACAGTACCTTT)”, for which the “recombinant UMI read abundance (log10)” value came to 0.501. As for “ACAGTACCATGGACCGGTTTTCCCGGTAATCCGTATTTGAA (site ACAGTATCTTG)”, the figure is 0; as for “ACAGTATCATGGACCGGTTTTCCCGGTAATCCGTATTTGCA (site AAAATATCTTG)”, 1.79; as for “ACAGTATCATGGACCGGTTTTCCCGGTAATCCGTATTTGCA (site AAAGAATCTTG)”, 1.57.

Turning to “ACAGTATCATGGACCGGTTTTCCCGGTAATCCGTATTTGCA (site AAAGTAACTTG)”, the “recombinant UMI read abundance (log10)” value turned out to be 0.587. Turning to “ACAGTATCATGGACCGGTTTTCCCGGTAATCCGTATTTGCA (site AAAGTATCTAG)”, the “recombinant UMI read abundance (log10)” value is 0.

Regarding “ACAGTATCATGGACCGGTTTTCCCGGTAATCCGTATTTGCA (site AAAGTATCTTC)”, the “recombinant UMI read abundance (log10)” value was 0.00296. Regarding “ACAGTATCATGGACCGGTTTTCCCGGTAATCCGTATTTGCA (site AAAGTATCTTG)”, the “recombinant UMI read abundance (log10)” value was determined as 2.1. The value for “ACAGTATCATGGACCGGTTTTCCCGGTAATCCGTATTTGCA (site AAAGTCTCTTG)” was 0.0144; that for “ACAGTATCATGGACCGGTTTTCCCGGTAATCCGTATTTGCA (site AACGTATCTTG)” was 2.46; that for “ACAGTATCATGGACCGGTTTTCCCGGTAATCCGTATTTGCA (site ACAAAATCTTG)” was 0.724. On to “ACAGTATCATGGACCGGTTTTCCCGGTAATCCGTATTTGCA (site ACAATAACTTG)”, for which the “recombinant UMI read abundance (log10)” value was determined as 0. As for “ACAGTATCATGGACCGGTTTTCCCGGTAATCCGTATTTGCA (site ACAATATCTAG)”, the “recombinant UMI read abundance (log10)” value was found to be 0.00607.

With “ACAGTATCATGGACCGGTTTTCCCGGTAATCCGTATTTGCA (site ACAATATCTTC)”, the “recombinant UMI read abundance (log10)” value stood at 0.00345. “ACAGTATCATGGACCGGTTTTCCCGGTAATCCGTATTTGCA (site ACAATATCTTG)”: the “recombinant UMI read abundance (log10)” value came out at 2.8. With “ACAGTATCATGGACCGGTTTTCCCGGTAATCCGTATTTGCA (site ACAATCTCTTG)”, the “recombinant UMI read abundance (log10)” value was found to be 0. Turning to “ACAGTATCATGGACCGGTTTTCCCGGTAATCCGTATTTGCA (site ACACCATCTTG)”, the “recombinant UMI read abundance (log10)” value was 0.786. Turning to “ACAGTATCATGGACCGGTTTTCCCGGTAATCCGTATTTGCA (site ACACTAGCTTG)”, the “recombinant UMI read abundance (log10)” value is 0.00526. Turning to “ACAGTATCATGGACCGGTTTTCCCGGTAATCCGTATTTGCA (site ACACTATCTCG)”, the “recombinant UMI read abundance (log10)” value came to 0. “ACAGTATCATGGACCGGTTTTCCCGGTAATCCGTATTTGCA (site ACACTATCTTA)”: the “recombinant UMI read abundance (log10)” value came to 0. Turning to “ACAGTATCATGGACCGGTTTTCCCGGTAATCCGTATTTGCA (site ACACTATCTTG)”, the “recombinant UMI read abundance (log10)” value was 1.61.

Turning to “ACAGTATCATGGACCGGTTTTCCCGGTAATCCGTATTTGCA (site ACACTTTCTTG)”, the “recombinant UMI read abundance (log10)” value amounted to 0.

For the sequence “ACAGTATCATGGACCGGTTTTCCCGGTAATCCGTATTTGCA (site ACAGAAACTTG)”, the “recombinant UMI read abundance (log10)” value was 0.

For the sequence “ACAGTATCATGGACCGGTTTTCCCGGTAATCCGTATTTGCA (site ACAGAATCTAG)”, the “recombinant UMI read abundance (log10)” value was 0. On to “ACAGTATCATGGACCGGTTTTCCCGGTAATCCGTATTTGCA (site ACAGAATCTTC)”, for which the “recombinant UMI read abundance (log10)” value came to 0.287. Regarding “ACAGTATCATGGACCGGTTTTCCCGGTAATCCGTATTTGCA (site ACAGAATCTTG)”, the “recombinant UMI read abundance (log10)” value amounted to 2.53. With “ACAGTATCATGGACCGGTTTTCCCGGTAATCCGTATTTGCA (site ACAGACTCTTG)”, the “recombinant UMI read abundance (log10)” value was 1.68. With “ACAGTATCATGGACCGGTTTTCCCGGTAATCCGTATTTGCA (site ACAGCAGCTTG)”, the “recombinant UMI read abundance (log10)” value turned out to be 0.00322. As for “ACAGTATCATGGACCGGTTTTCCCGGTAATCCGTATTTGCA (site ACAGCATCTCG)”, the figure is 0.00554; as for “ACAGTATCATGGACCGGTTTTCCCGGTAATCCGTATTTGCA (site ACAGCATCTTA)”, 0.00439; as for “ACAGTATCATGGACCGGTTTTCCCGGTAATCCGTATTTGCA (site ACAGCATCTTG)”, 1.64. Take “ACAGTATCATGGACCGGTTTTCCCGGTAATCCGTATTTGCA (site ACAGCTTCTTG)”: the “recombinant UMI read abundance (log10)” value turned out to be 0.

On to “ACAGTATCATGGACCGGTTTTCCCGGTAATCCGTATTTGCA (site ACAGGACCTTG)”, for which the “recombinant UMI read abundance (log10)” value was 0. The value for “ACAGTATCATGGACCGGTTTTCCCGGTAATCCGTATTTGCA (site ACAGGATCTGG)” was 0.

“ACAGTATCATGGACCGGTTTTCCCGGTAATCCGTATTTGCA (site ACAGGATCTTG)”: the “recombinant UMI read abundance (log10)” value was 1.01. On to “ACAGTATCATGGACCGGTTTTCCCGGTAATCCGTATTTGCA (site ACAGGATCTTT)”, for which the “recombinant UMI read abundance (log10)” value was 0. Regarding “ACAGTATCATGGACCGGTTTTCCCGGTAATCCGTATTTGCA (site ACAGGGTCTTG)”, the “recombinant UMI read abundance (log10)” value was determined as 1.17. The value for “ACAGTATCATGGACCGGTTTTCCCGGTAATCCGTATTTGCA (site ACAGTAACTAG)” was 0; that for “ACAGTATCATGGACCGGTTTTCCCGGTAATCCGTATTTGCA (site ACAGTAACTTC)” was 0.0177; that for “ACAGTATCATGGACCGGTTTTCCCGGTAATCCGTATTTGCA (site ACAGTAACTTG)” was 1.55. As for “ACAGTATCATGGACCGGTTTTCCCGGTAATCCGTATTTGCA (site ACAGTACCTGG)”, the “recombinant UMI read abundance (log10)” value worked out at 0.

In the case of “ACAGTATCATGGACCGGTTTTCCCGGTAATCCGTATTTGCA (site ACAGTACCTTG)”, the “recombinant UMI read abundance (log10)” value stood at 0. On to “ACAGTATCATGGACCGGTTTTCCCGGTAATCCGTATTTGCA (site ACAGTACCTTT)”, for which the “recombinant UMI read abundance (log10)” value came out at 0.00804. Consider “ACAGTATCATGGACCGGTTTTCCCGGTAATCCGTATTTGCA (site ACAGTAGCTCG)”, for which the “recombinant UMI read abundance (log10)” value stood at 0.00206. In the case of “ACAGTATCATGGACCGGTTTTCCCGGTAATCCGTATTTGCA (site ACAGTAGCTTA)”, the “recombinant UMI read abundance (log10)” value was 0.00334. As for “ACAGTATCATGGACCGGTTTTCCCGGTAATCCGTATTTGCA (site ACAGTAGCTTG)”, the figure is 0.142.

Turning to “ACAGTATCATGGACCGGTTTTCCCGGTAATCCGTATTTGCA (site ACAGTATCTAC)”, the “recombinant UMI read abundance (log10)” value stood at 0. As for “ACAGTATCATGGACCGGTTTTCCCGGTAATCCGTATTTGCA (site ACAGTATCTAG)”, the figure is 1.81; as for “ACAGTATCATGGACCGGTTTTCCCGGTAATCCGTATTTGCA (site ACAGTATCTCA)”, 0.878; as for “ACAGTATCATGGACCGGTTTTCCCGGTAATCCGTATTTGCA (site ACAGTATCTCG)”, 1.77.

In the case of “ACAGTATCATGGACCGGTTTTCCCGGTAATCCGTATTTGCA (site ACAGTATCTGG)”, the “recombinant UMI read abundance (log10)” value came out at 2.13. As to “ACAGTATCATGGACCGGTTTTCCCGGTAATCCGTATTTGCA (site ACAGTATCTGT)”, the “recombinant UMI read abundance (log10)” value came to 0.00931. As for “ACAGTATCATGGACCGGTTTTCCCGGTAATCCGTATTTGCA (site ACAGTATCTTA)”, the figure is 2.23.

As for “ACAGTATCATGGACCGGTTTTCCCGGTAATCCGTATTTGCA (site ACAGTATCTTC)”, the “recombinant UMI read abundance (log10)” value was 1.17. With “ACAGTATCATGGACCGGTTTTCCCGGTAATCCGTATTTGCA (site ACAGTATCTTG)”, the “recombinant UMI read abundance (log10)” value stood at 2.67.

“ACAGTATCATGGACCGGTTTTCCCGGTAATCCGTATTTGCA (site ACAGTATCTTT)”: the “recombinant UMI read abundance (log10)” value is 2.17.

“ACAGTATCATGGACCGGTTTTCCCGGTAATCCGTATTTGCA (site ACAGTCACTTG)”: the “recombinant UMI read abundance (log10)” value is 2.03.

With “ACAGTATCATGGACCGGTTTTCCCGGTAATCCGTATTTGCA (site ACAGTCTCTAG)”, the “recombinant UMI read abundance (log10)” value is 0. With “ACAGTATCATGGACCGGTTTTCCCGGTAATCCGTATTTGCA (site ACAGTCTCTTC)”, the “recombinant UMI read abundance (log10)” value came to 0.0179. Turning to “ACAGTATCATGGACCGGTTTTCCCGGTAATCCGTATTTGCA (site ACAGTCTCTTG)”, the “recombinant UMI read abundance (log10)” value is 2.06.

For “ACAGTATCATGGACCGGTTTTCCCGGTAATCCGTATTTGCA (site ACAGTGCCTTG)”, the “recombinant UMI read abundance (log10)” value was 0.121.
